Test results taken from patent EP2050458A1, “IL24 for inducing hyperproliferative or autoimmune cell death” (INSTITUT NATIONAL DE LA SANTE ET DE LA RECHERCHE MEDICALE …, priority 2007, dated 2009).
Where a SMILES comes first, the peptide text is derived from it. The star is where a group is joined. Cbz = O=C(OCc1ccccc1)*; CH2F = FC*

Tests used:
Assay type in all cases: cell-based, human
[1] = system: CLL B-cells; assay: Cell cycle analysis by Propidium Iodide staining and FACS; conditions: inhibitor added with IL24 to cells cultured overnight with IL2 (IL2+IL24+inhibitor); vs 3.36 ± 1.3% without inhibitor
Procedure: For apoptosis studies, cells were stained either with the Apo 2.7-PE mAb (Beckman-Coulter, Villepinte, France) on ice for 15 min, washed and resuspended on 300 µl of PBS 1X supplemented with 0,1% BSA or with the Annexin V-FITC apoptosis detection kit (Becton Dickinson Biosciences, Le-Pont-de-Claix, France), 1x10^5 cells in 100 µl 1X binding buffer were stained with 5 µl of Annexin V-FITC and 5 µl Propidium Iodide (PI) in the dark for 15 min at room temperature (RT). 400 µl of 1X binding buffer was added before fluorescence-activated cell sorted (FACS) analysis. For cell cycle analysis 1x10^6 cells were washed with cold PBS1X and resuspended in 1ml EtOH 70% and kept on ice for at least 10 min. Cells were then centrifuged and the pellet resuspended in 1ml PBS 1X + RNAse (40 µg) Saint-Quentin Fallavier, France) + Propidium Iodide (18 µl) at room temperature. […]
Fluorescence was measured using a FACScan flow cytometer (BD Biosciences), and data analysis was performed using CellQuest software (BD Biosciences).
It was next determined whether the inhibition of thymidine incorporation by B-cells reflected cell cycle block and/or apoptosis. […] The respective percentages of hypodiploid (apoptotic) cells, and of cells in G0-G1, S and G2-M cell cycle phase, and finally of hyperdiploid cells were evaluated (M1 to M4 populations respectively in figure 3a). […]

[2] = system: P-stat3; assay: Stat3 phosphorylation (Phospho-Y705 stat3) by western blot and immunostaining in CLL cells
Procedure: For pervanadate experiments, fresh CLL cells were preincubated or not with IL2 overnight, then incubated or not with pervanadate 25 µM during 5 min and stimulated or not with IL24 for 10 min and lysed as previously described. Blots were hybridyzed with anti phospho-Tyr 705-STAT3 (B-7) MAb (Tebu-bio), dehybridyzed and reblotted with anti STAT3 MAb (BD Transduction Laboratories).
Stat3 was strongly and stably phosphorylated in cells incubated overnight with IL2 as evidenced by hybridization with an anti Phospho-Y705 stat3 MAb. In contrast, phospho(P)-stat5 disappeared and total stat5 diminished in the cytosol of cells incubated overnight with IL2, presumably due to dimerization and translocation to the nucleus (Paukku et al. Cytokine Growth Factor Rev. 2004. 6:435-55).
Cells were therefore incubated or not for 5 min with […] pervanadate (PV), an inhibitor of protein tyrosine phosphatase activity (Heffetz and Bushkin H. J Biol Chem. 1990. 265:2896-902) and stimulated 10 min with IL24 on cells preincubated or not with IL2. Cytospin and western blot experiments were performed.
Troglitazone (TG) is an activator of protein-tyrosine phosphatase (PTP)-1B that reduced P-Y705-stat3 and promoted apoptosis in human primary gliomas (Akasaki et al. J Biol Chem. 2005. 281:6165-74). TG was therefore used to determine if it is able to stimulate p53 expression and apoptosis in CLL. […]

[3] = system: CLL cells; assay: CLL cell survival in culture (trypan blue cell count, cell cycle analysis); conditions: culture for > 30 min
Procedure: • Figure 1. rIL24 protects CLL B-cells from death in culture. • a) CLL cells (2x10^6/ml) were cultured in complete medium (•) or with 100 ng/ml rIL24 (▲) every 7 days and cells counted using trypan blue exclusion. % living cells was calculated in each sample (mean ± SD, n=8). b) Cell scatter, Apoptosis shown by Apo 2.7-PE staining, and cell cycle shown by PI staining from one representative sample (CLL 70) at day 21. M1: hypodiploid (apoptotic cells) M2: cells into G0/G1, M3: cells into S+G2+M, M4: hyperdiploid cells. • Figure 2. rIL24 inhibits thymidine incorporation in activated CLL cells. • a) IL24 was added to IL2-cultured cells as in figure 1, one day before (d-1) at the same time (d0) or one day after (d=1) IL2. b) IL24 was added to CLL cells cultured for 24 h with IL2, IL2+CD40-Ligand or anti-IgM+CD40-Ligand. Tymidine (0.5 mCi/ml) was added at day 3 for 15 h. […] Mean ± SD (n=8) of the M1 to M4 populations calculated as in (a) from CLL cells cultured with IL2 (hatched histogram) or IL2 then IL24 (white histogram). […] RNA was extracted at day 3, reverse-transcribed, amplified and analyzed by real-time PCR. […]

## Cc1ccc(C(=O)Cn2c3c(sc2=N)CCCC3)cc1 [Pft-a, Pifithrin]
[1]
  cells in S/G2/M: 6.44 ± 2.2%

## Cc1c(C)c2c(c(C)c1O)CCC(C)(COc1ccc(CC3SC(=O)NC3=O)cc1)O2 (centres unmarked) [TG, Troglitazone]
[2]; IL2-cultured CLL cells
  total Stat3 expression: no effect

## COC(=O)C[C@H](NC(=O)[C@H](C)NC(=O)[C@@H](NC(=O)OCc1ccccc1)C(C)C)C(=O)CF [zvad, ZVAD-fmk] (Cbz-Val-Ala-Asp(OMe)-CH2F)
[1]
  cells in S/G2/M: 4.8 ± 1.77%

## pervanadate [PV]
[2]; 5 min with 25 µM pervanadate, then 10 min IL24
  IL24-mediated inhibition of P-Stat3: antagonized
[3]
  toxicity in culture: too toxic
